pIC50: −log10 of the molar value.
Molecular target: T1, SOS1 (Homo sapiens, UniProt Q07889)
T1 construct: comprising amino acid residues 564-1049 corresponding to the catalytic domain; purchased Reaction Biology Corp. SOS1-Strep #MSC-11-502; GST-KRAS G12C #MSC-11-538
T1 sequence (Q07889 564-1049): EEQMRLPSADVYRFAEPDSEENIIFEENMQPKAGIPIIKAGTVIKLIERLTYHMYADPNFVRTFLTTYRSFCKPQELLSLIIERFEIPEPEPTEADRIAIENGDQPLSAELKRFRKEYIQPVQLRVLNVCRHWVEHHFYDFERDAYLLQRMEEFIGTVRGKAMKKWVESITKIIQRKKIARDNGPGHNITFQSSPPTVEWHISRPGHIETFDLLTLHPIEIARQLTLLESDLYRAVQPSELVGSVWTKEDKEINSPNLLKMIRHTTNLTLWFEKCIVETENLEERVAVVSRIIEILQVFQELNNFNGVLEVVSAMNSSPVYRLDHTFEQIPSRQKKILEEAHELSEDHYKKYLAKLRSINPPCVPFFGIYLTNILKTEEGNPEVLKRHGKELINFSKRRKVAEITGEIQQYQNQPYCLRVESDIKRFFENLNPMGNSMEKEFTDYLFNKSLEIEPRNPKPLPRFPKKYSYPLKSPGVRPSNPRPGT
Assay: Inhibitory activity on SOS1-mediated GTP exchange (HTRF / TR-FRET nucleotide exchange assay on KRAS G12C)
Format: biochemical
Conditions: SOS1-mediated GTP exchange on GST-KRAS G12C (residues 2-169); SOS1-Strep catalytic domain (564-1049); GTP-DY-647P1; HTRF signal; 5-point concentration series up to 1,000 nM
Description: To evaluate whether the SOS1-mediated nucleotide exchange activity on KRAS G12C is inhibited by the compounds of the above Examples, a homogeneous time-resolved fluorescence (homogenous time-resolved fluorescence, HTRF) assay was performed using GST-KRAS G12C (#MSC-11-538) and SOS1-Strep (#MSC-11-502) obtained from Reaction Biology Corp. (USA, MA). The activity of SOS1 was determined by measuring the amount of GTP bound to the KRAS G12C protein based on the principle of time-resolved fluorescence resonance energy transfer (time-resolved fluorescence energy transfer, TR-FRET). Terbium (Terbium) conjugated to an anti-GST antibody bound to the GST tag of the GST-KRAS G12C protein served as a FRET donor, and GTP bound to the KRAS G12C protein was labeled with the fluorophore DY-647P1, serving as a FRET acceptor. Based on this principle, a higher HTRF or FRET signal is observed as more GTP is bound to KRAS G12C due to the SOS1-mediated exchange reaction in the assay.
In summary, a GST-labeled KRAS G12C protein (comprising amino acid residues 2-169), a […] SOS1 protein (comprising amino acid residues 564-1049 corresponding to the catalytic domain), an anti-GST antibody, labeled nucleotide GTP-DY-647P1, and the test compound were mixed in a buffer solution containing 20 mM HEPES (pH 7.4), 150 mM NaCl, 5 mM MgCl2, 1 mM dithiothreitol (DTT), 0.05% BSA, and 0.0025% NP40. The mixture was dispensed into a 384-well plate, incubated at room temperature, and the HTRF signal was measured using a PHERAstar microplate reader (BMG Labtech). The excitation wavelength was 337 nm, and emission was measured at 620/665 nm. A background signal value was determined from fluorescence measurements obtained in the absence of SOS1 protein and was subtracted from all measured HTRF values. A control value was determined from fluorescence measurements obtained in the absence of the synthesized compounds and was set as the 100% reference. Fluorescence signals were measured at compound concentrations of 0.1, 1, 10, 100, and 1,000 nM (5 points, 10-fold) or 1.6, 8, 40, 200, and 1,000 nM (5 points, 5-fold). The 50% inhibitory concentration (IC50) values of the compounds were calculated using GraphPad Prism.
IC50 values were denoted as +++ when 50 nM or less, ++ when greater than 50 nM and 100 nM or less, and + when greater than 100 nM.

pIC50	Structure (SMILES)
≥ 7.30	CNc1cc2c(N[C@H](C)c3cccc(C#N)c3C)nnc(C)c2cc1C(=O)N1CC2COCC2C1 (stereo partly drawn) [Example 7, 3-((1R)-1-((6-(hexahydro-1H-furo[3,4-c]pyrrole-5-carbonyl)-4-methyl-7-(methylamino)phthalazin-1-yl)amino)ethyl)-2-methylbenzonitrile]
≥ 7.30	CNc1cc2c(N[C@H](C)c3cccc(C#N)c3C)nnc(C)c2cc1C(=O)N1CCC2(CC2)C1 [Example 18, (R)-2-methyl-3-(1-((4-methyl-7-(methylamino)-6-(5-azaspiro[2.4]heptane-5-carbonyl)phthalazin-1-yl)amino)ethyl)benzonitrile]
≥ 7.30	CNc1cc2c(N[C@H](C)c3cccc(C#N)c3C)nnc(C)c2cc1C(=O)N1CCC1 [Example 16, (R)-3-(1-((6-(azetidine-1-carbonyl)-4-methyl-7-(methylamino)phthalazin-1-yl)amino)ethyl)-2-methylbenzonitrile]
≥ 7.30	Cc1c(C#N)cccc1[C@@H](C)Nc1nnc(C)c2cc(CN3CCOCC3)c(NC3CCCC3)cc12 [Example 30, (R)-3-(1-((7-(cyclopentylamino)-4-methyl-6-(morpholinomethyl)phthalazin-1-yl)amino)ethyl)-2-methylbenzonitrile]
≥ 7.30	CNc1cc2c(N[C@H](C)c3cccc(C#N)c3C)nnc(C)c2cc1C(=O)N1CCCOCC1 [Example 24, (R)-2-methyl-3-(1-((4-methyl-7-(methylamino)-6-(1,4-oxazepane-4-carbonyl)phthalazin-1-yl)amino)ethyl)benzonitrile]
≥ 7.30	Cc1c(C#N)cccc1[C@@H](C)Nc1nnc(C)c2cc(C(=O)N3CCOCC3)c(NC3CCCC3)cc12 [Example 33]
≥ 7.30	CNc1cc2c(N[C@H](C)c3cccc(C#N)c3C)nnc(C)c2cc1C(=O)N1CCN(C2CC2)CC1 [Example 13, (R)-3-(1-((6-(4-cyclopropylpiperazine-1-carbonyl)-4-methyl-7-(methylamino)phthalazin-1-yl)amino)ethyl)-2-methylbenzonitrile]
≥ 7.30	CNc1cc2c(N[C@H](C)c3cccc(C#N)c3C)nnc(C)c2cc1C(=O)N1CCS(=O)(=O)CC1 [Example 4, (R)-3-(1-((6-(1,1-dioxothiomorpholine-4-carbonyl)-4-methyl-7-(methylamino)phthalazin-1-yl)amino)ethyl)-2-methylbenzonitrile]
≥ 7.30	CCN1CCN(C(=O)c2cc3c(C)nnc(N[C@H](C)c4cccc(C#N)c4C)c3cc2NC)CC1 [Example 12, (R)-3-(1-((6-(4-ethylpiperazine-1-carbonyl)-4-methyl-7-(methylamino)phthalazin-1-yl)amino)ethyl)-2-methylbenzonitrile]

— EP4786455A1, “NOVEL PHTHALAZINE DERIVATIVE COMPOUND AS SOS1 INHIBITOR, AND USE THEREOF” (Hanmi Pharmaceutical Co., Ltd., priority 2023, dated 2025)
